The record followed here is ChEMBL document CHEMBL4130388, “Recent advances of pyrazole-containing derivatives as anti-tubercular agents” (Eur J Med Chem, 2017).

For orientation: MIC means the least concentration at which growth counts as inhibited. Higher therefore signals a need for much substance. What is called IC50 is the concentration needed to halve the response being measured. High values mean weaker potency, low ones greater potency.

≈ marks a conversion by molar mass, not a printed value.

Assay [1] has as its system Mycobacterium tuberculosis. As to the kind of experiment: Antitubercular activity against Mycobacterium tuberculosis H37Rv. The class given is functional.
The test system of assay [2] is Mycobacterium tuberculosis. Put plainly: Antitubercular activity against Mycobacterium tuberculosis spec.210. The format is functional.
Assay [3] concerns Mycobacterium tuberculosis. As to the kind of experiment: Antitubercular activity against Mycobacterium tuberculosis spec.192. The format is functional.
Assay [4] has as its system Mycobacterium tuberculosis. As to the kind of experiment: Antitubercular activity against Mycobacterium tuberculosis H37Rv by Lowensteine-Jensen method. The format is functional.
Another assay relates to HepG2. Put plainly: Cytotoxicity against human HepG2 cells. The class given is cell-based.
Assay [5] relates to Mycobacterium tuberculosis. As to the kind of experiment: Antitubercular activity against Mycobacterium tuberculosis. The format is functional.
The subject of assay [6] is Mycobacterium tuberculosis. As to the kind of experiment: Potency index, ratio of pyrazinamide MIC to compound MIC for Mycobacterium tuberculosis. The format is functional.
In assay [7] the test system is Mycobacterium tuberculosis. Put plainly: Potency index, ratio of pyrazinamide MIC to compound MIC for Mycobacterium tuberculosis H37Rv. The class given is functional.
Assay [8] relates to Mycobacterium tuberculosis. As to the kind of experiment: Antitubercular activity against Mycobacterium tuberculosis H37Rv by broth dilution method. The format is functional.

Take `O=C(Nc1ccccc1)N1CCc2c(cnn2Cc2cn(-c3ccccc3Cl)nn2)C1`: the MIC fell in the range of 24.7 to 200 µM in assay [1], 24.7 to 200 µM (≈ 10.7 to 86.8 µg/mL) in assay [2] and 24.7 to 200 µM (≈ 10.7 to 86.8 µg/mL) in assay [3].
`O=C(Nc1ccccc1)N1CCc2c(cnn2Cc2cn(-c3ccccc3I)nn2)C1`: the MIC in [1] is 24.7 to 200 µM; in assay [2], 24.7 to 200 µM (≈ 13 to 105 µg/mL); in assay [3], 24.7 to 200 µM (≈ 13 to 105 µg/mL).
Regarding `O=C(NCCCn1ncc2ccc([N+](=O)[O-])cc21)N1C(=O)C(Cl)C1c1ccc(Br)cc1` (stereo unspecified), the MIC in assay [4] is 6.25 to 50 µg/mL (≈ 12.3 to 98.7 µM).
Compound `CC1=NN(C(=O)c2cc(-c3ccc(Cl)cc3)n[nH]2)C(=O)/C1=N\Nc1ccc(Cl)cc1` came in with an MIC in assay [1] of 0.6 µg/mL. The compound further yielded an IC50 with HepG2 of 306 µM.
Regarding `O=C(Nc1ccccc1)N1CCc2c(cnn2Cc2cn(-c3cccc(Cl)c3)nn2)C1`, the MIC in [1] lay in the range of 24.7 to 200 µM; in assay [2], 24.7 to 200 µM (≈ 10.7 to 86.8 µg/mL); in assay [3] it was 24.7 to 200 µM (≈ 10.7 to 86.8 µg/mL).
`O=C(NCCCn1ncc2ccc([N+](=O)[O-])cc21)N1C(=O)C(Cl)C1c1ccc(Cl)cc1` (stereo unspecified) gave an MIC in assay [4] of 6.25 µg/mL (≈ 13.5 µM).
Regarding `N#Cc1ccc(-c2nnc(-c3n[nH]cc3-c3ccc(Cl)cc3)o2)cc1`, the lowest concentration to inhibit growth in [5] (MIC) was 25 µg/mL (≈ 71.9 µM). Besides, in assay [6], the Ratio was determined as 4.
As to `O=C(Nc1ccccc1)N1CCc2c(cnn2Cc2cn(-c3ccc(Cl)c(Cl)c3)nn2)C1`, the values for the MIC in assay [1], in [2] and in assay [3] were 24.7 to 200 µM, 24.7 to 200 µM (≈ 11.6 to 93.7 µg/mL) and 24.7 to 200 µM (≈ 11.6 to 93.7 µg/mL), respectively.
Take `CO[C@H]1/C=C/O[C@@]2(C)Oc3c(C)c(O)c4c(O)c(c(/C=N/N5CCN(C)CC5)c(O)c4c3C2=O)NC(=O)/C(C)=C\C=C\[C@H](C)[C@H](O)[C@@H](C)[C@@H](O)[C@@H](C)[C@H](OC(C)=O)[C@@H]1C` [RIFAMPIN]: the MIC in assay [4] fell in the range of 0.2 to 4 µg/mL (≈ 0.243 to 4.86 µM).
In turn, `O=C(NCCCn1ncc2ccc([N+](=O)[O-])cc21)N1C(=O)C(Cl)C1c1cccc([N+](=O)[O-])c1` (stereo unspecified) yielded an MIC in assay [4] of 6.25 to 50 µg/mL (≈ 13.2 to 106 µM).
For `COc1cccc(-n2cc(Cn3ncc4c3CCN(C(=O)Nc3ccccc3)C4)nn2)c1`, the values for the MIC in assay [1], in [2] and in assay [3] were 24.7 to 200 µM, 24.7 to 200 µM (≈ 10.6 to 85.9 µg/mL) and 24.7 to 200 µM (≈ 10.6 to 85.9 µg/mL), respectively.
In the case of `O=C(Nc1ccccc1)N1CCc2c(cnn2Cc2cn(-c3ccc(Cl)cc3Cl)nn2)C1`, the figures for the MIC in [1], in assay [2] and in assay [3] were 24.7 to 200 µM, 24.7 to 200 µM (≈ 11.6 to 93.7 µg/mL) and 24.7 to 200 µM (≈ 11.6 to 93.7 µg/mL), respectively.
`O=C(NCCCn1ncc2ccc([N+](=O)[O-])cc21)N1C(=O)C(Cl)C1c1ccccc1Cl` (stereo unspecified): the minimal inhibitory concentration (MIC) in assay [4] fell in the range of 6.25 to 50 µg/mL (≈ 13.5 to 108 µM).
The compound `Cc1cc(-n2nc(C(=O)NCC(F)(F)F)cc2-c2cccnc2)c2cccc(C(F)(F)F)c2n1` returned an MIC in assay [1] of 3.13 µg/mL. Moreover, the Ratio in assay [7] is 16.
In assay [4], `O=C(NCCCn1ncc2ccc([N+](=O)[O-])cc21)N1C(=O)C(Cl)C1c1ccc([N+](=O)[O-])cc1` (stereo unspecified) yielded an MIC of 6.25 to 50 µg/mL (≈ 13.2 to 106 µM).
`COc1ccccc1C1C(Cl)C(=O)N1C(=O)NCCCn1ncc2ccc([N+](=O)[O-])cc21` (stereo unspecified): the MIC in [4] fell in the range of 6.25 to 50 µg/mL (≈ 13.7 to 109 µM).
On the same count and under the same terms, under `O=C(NCCCn1ncc2ccc([N+](=O)[O-])cc21)N1C(=O)C(Cl)C1c1cccc(Cl)c1` (stereo unspecified) stands 6.25 to 50 µg/mL (≈ 13.5 to 108 µM).
Turning to `CC[C@@H](CO)NCCN[C@@H](CC)CO` [ETHAMBUTOL], the MIC in assay [4] was 0.2 to 4 µg/mL (≈ 0.979 to 19.6 µM); in [1], 3.13 µg/mL.
As to `Cc1cc(-n2nc(C(=O)NCc3ccc(OC(F)(F)F)cc3)cc2-c2cccnc2)c2cccc(C(F)(F)F)c2n1`, the MIC in [1] was found to be 3.13 µg/mL. In addition, the Ratio in [7] is 16.
Take `O=C(Nc1ccccc1)N1CCc2c(cnn2Cc2cn(-c3ccc(Br)c(OC(F)(F)F)c3)nn2)C1`: the values for the MIC in [1], in assay [2] and in assay [3] were 24.7 to 200 µM, 24.7 to 200 µM (≈ 13.9 to 112 µg/mL) and 24.7 to 200 µM (≈ 13.9 to 112 µg/mL), respectively.
For `Cc1ccc(-n2cc(Cn3ncc4c3CCN(C(=O)Nc3ccccc3)C4)nn2)cc1`, the MIC in assay [1] was in the range of 24.7 to 200 µM; in [2], 24.7 to 200 µM (≈ 10.2 to 82.7 µg/mL); in [3], 24.7 to 200 µM (≈ 10.2 to 82.7 µg/mL).
On to `NC(=O)c1cnccn1` [PYRAZINAMIDE], for which the MIC was 0.2 to 4 µg/mL (≈ 1.62 to 32.5 µM) in [4], 50 µg/mL in assay [1] and 100 µg/mL (≈ 812 µM) in assay [5].
As for `CCc1ccc(-n2cc(Cn3ncc4c3CCN(C(=O)Nc3ccccc3)C4)nn2)cc1`, the MIC in assay [1] fell in the range of 24.7 to 200 µM; in assay [2], 24.7 to 200 µM (≈ 10.6 to 85.5 µg/mL); in assay [3], 24.7 to 200 µM (≈ 10.6 to 85.5 µg/mL).
Compound `COc1cccc(C2C(Cl)C(=O)N2C(=O)NCCCn2ncc3ccc([N+](=O)[O-])cc32)c1` (stereo unspecified) gave an MIC in [4] of 6.25 to 50 µg/mL (≈ 13.7 to 109 µM).
For `CCOC(=O)C1=C(C)NC(C)=C(C(=O)OCC)C1c1cn(-c2ccccc2)nc1-c1ccc(Br)cc1`, in assay [1], the MIC is 0.02 µg/mL.
Turning to `Cc1ccc(-n2cc(Cn3ncc4c3CCN(C(=O)Nc3ccccc3)C4)nn2)cc1C`, the MIC fell in the range of 24.7 to 200 µM in assay [1], 24.7 to 200 µM (≈ 10.6 to 85.5 µg/mL) in assay [2] and 24.7 to 200 µM (≈ 10.6 to 85.5 µg/mL) in assay [3].
`CCOC(=O)C1=C(C)NC(=O)NC1c1cn(-c2ccccc2)nc1-c1ccc([N+](=O)[O-])cc1` (stereo unspecified) came in with an MIC in [8] of 0.02 µg/mL (≈ 0.0447 µM).
As to `O=C(Nc1ccccc1)N1CCc2c(cnn2Cc2cn(-c3ccccc3[N+](=O)[O-])nn2)C1`, the MIC in assay [1] fell in the range of 24.7 to 200 µM; in assay [2], 24.7 to 200 µM (≈ 11 to 88.9 µg/mL); in [3], 24.7 to 200 µM (≈ 11 to 88.9 µg/mL).
Regarding `Cc1cccc(C2C(Cl)C(=O)N2C(=O)NCCCn2ncc3ccc([N+](=O)[O-])cc32)c1` (stereo unspecified), the MIC in assay [4] lay within 6.25 to 50 µg/mL (≈ 14.1 to 113 µM).
Regarding `O=C(Nc1ccccc1)N1CCc2c(cnn2Cc2cn(-c3ccccc3Br)nn2)C1`, the MIC in [1] fell in the range of 24.7 to 200 µM; in assay [2], 24.7 to 200 µM (≈ 11.8 to 95.7 µg/mL); in assay [3], 24.7 to 200 µM (≈ 11.8 to 95.7 µg/mL).
